Laboratory results: US6573246B1, “Modified ether glyceroglycolipids” (The Liposome Company, Inc., priority 1995, dated 2003)
Read-outs that look alike come from different tables or passages of the source. Blank lines part the entries; values can stand above or below the molecule they belong to.

What was measured:
[1] = system: MCF-7 (breast adenocarcinoma) cells; assay: growth inhibition of MCF-7 cells in culture; assay type: cell-based, human
Description: (§1) Human epithelial cancer cell lines were grown from frozen stocks originally obtained from the ATCC, in media commonly used for growing these cells in culture. For example, A549 cells (non-small cell lung adenocarcinoma) were cultured in Ham's F-12 medium, T84 cells (colon carcinoma) were cultured in a 1:1 mixture of F-12 and DMEM while MCF-7 (breast adenocarcinoma) and A427 (large cell lung carcinoma) cells were cultured in DMEM. The media were supplemented with 10% fetal bovine serum, penicillin (50 U/ml), streptomycin (50 micogram/ml) and fungizone (0.5 microgram/ml). OVCAR-3 cells (ovarian adenocarcinoma) were cultured in RPMI 1640 medium supplemented with 20% FBS and 10 microgram/ml insulin.
(§2) Cells were subcultured into 24-well plates and the cell number was monitored daily. When the cells were in log phase, the media was replaced with one containing the required drug concentration, and the cells were incubated for 72 h. The increase in cell numbers relative to control wells (without any drug) was determined after the incubation. Stock solutions of the drugs ([…]) were prepared in ethanol and stored at −20 deg. C. Etherlipid solutions (30 micromolar) in the appropriate media were prepared fresh on the day of the experiment and serially diluted to give the required concentrations. The final concentration of ethanol in all wells was 0.1% (v/v).
(§3) Gl50 values are given as the mean ± standard deviation; the Gl50 value from each experiment “n” was generated from three individual wells on two separate plates (six total wells); n=1 for compounds 3-6; n=2 for most cell lines treated with compound 2 ^an=3; ^bn=2; ^cn=6; ^dn=8.

[2] = system: A549 cells (non-small cell lung adenocarcinoma); assay: growth inhibition of A549 cells in culture; assay type: cell-based, human
Description: as §1, §2, §3

[3] = system: MCF-7/Adr (adriamycin-resistant) cells; assay: growth inhibition of MCF7/adr cells in culture; assay type: cell-based, human; details: mean ± standard deviation, read-out: Gl50 (concentration of lipid required to inhibit the growth of fifty percent of the cells in culture)
Description: (§4) The Gl50 values for edelfosine (1), 2′-deoxy-β-D-arabinopyranosyl (2), 2′-deoxy-α-D-arabinopyranosyl (3), 2-O-methyl-β-D-glucopyranosyl (4), 2′-O-methyl-β-D-mannopyranosyl (5) and α-D-mannopyransoyl (6) on A-549, MCF-7, Lewis Lung, MCF-7/Adr (adriamycin-resistant), P388, P-388/Adr, L1210 and L1210/vmdr cells were determined and are set forth below (see Table 4) as the concentration (micromolar) of lipid required to inhibit the growth of fifty percent of the cells in culture.
as §3

Lewis Lung cells = assay: growth inhibition of Lewis Lung cells in culture; assay type: cell-based, murine; details: mean ± standard deviation, read-out: Gl50 (concentration of lipid required to inhibit the growth of fifty percent of the cells in culture)
Description: as §4, §3

P388 cells = assay: growth inhibition of P388 cells in culture; assay type: cell-based, murine; details: mean ± standard deviation, read-out: Gl50 (concentration of lipid required to inhibit the growth of fifty percent of the cells in culture)
Description: as §4, §3

P-388/Adr cells = assay: growth inhibition of P388/adr cells in culture; assay type: cell-based, murine; details: mean ± standard deviation, read-out: Gl50 (concentration of lipid required to inhibit the growth of fifty percent of the cells in culture)
Description: as §4, §3

[4] = system: T84 cells (colon carcinoma); assay: growth inhibition of T84 cells in culture; assay type: cell-based, human; details: 72 h
Description: as §1, §2

[5] = system: A427 (large cell lung carcinoma) cells; assay: growth inhibition of A427 cells in culture; assay type: cell-based, human; details: 72 h
Description: as §1, §2

[6] = system: OVCAR-3 cells (ovarian adenocarcinoma); assay: growth inhibition of OVCAR-3 cells in culture; assay type: cell-based, human; details: for growth: increase in cell numbers relative to control wells (control = 100): OVCAR-3, 72 h
Description: as §1, §2

HT29 cells = assay: growth inhibition of HT29 cells in culture; assay type: cell-based; details: mean ± standard deviation, read-out: Gl50 (concentration of lipid required to inhibit the growth of fifty percent of the cells in culture)
L1210 cells = assay: growth inhibition of L1210 cells in culture; assay type: cell-based; details: mean ± standard deviation, read-out: Gl50 (concentration of lipid required to inhibit the growth of fifty percent of the cells in culture)
Description: as §4, §3

L1210/vmdr cells = assay: growth inhibition of L1210/vmdr cells in culture; assay type: cell-based; details: mean ± standard deviation, read-out: Gl50 (concentration of lipid required to inhibit the growth of fifty percent of the cells in culture)
Description: as §4, §3

[7] = MCF7, mean ± standard deviation, read-out: Gl50 (concentration of lipid required to inhibit the growth of fifty percent of the cells in culture)
[8] = mean ± standard deviation, read-out: Gl50 (concentration of lipid required to inhibit the growth of fifty percent of the cells in culture)
[9] = 10% FBS-supplemented medium, read-out: Gl50 (concentration that inhibited cell growth by 50% in comparison to control cultures)

IC50 [1, 7]: 23.1 ± 0.64 µM
IC50 [2, 8]: 18.3 ± 0.14 µM
IC50 [3]: 21.8 ± 0.63 µM
IC50 (P388 cells): 18.1 ± 1.13 µM
IC50 (P-388/Adr cells): 29.3 ± 5.66 µM
Compound: CCCCCCCCCCCCCCCCOC[C@H](CO[C@@H]1O[C@H](CO)[C@@H](O)[C@H](O)[C@H]1OC)OC [compound 4, 1-O-Hexadecyl-2-O-methyl-3-O-(2′-methyl-β-D-glucopyransoyl)-sn-glycerol]
IC50 (Lewis Lung cells): 26 ± 0.71 µM

IC50 ([1]; MCF-7, 72 h, 10% FBS-supplemented medium, read-out: Gl50 (concentration that inhibited cell growth by 50% in comparison to control cultures)): 17 µM
IC50 [4, 9]: > 30 µM
IC50 ([2]; 72 h, 10% FBS-supplemented medium, read-out: Gl50 (concentration that inhibited cell growth by 50% in comparison to control cultures)): 9 µM
IC50 [5, 9]: 24.5 µM
IC50 ([6]; OVCAR-3 ovarian cancer cell line, read-out: Gl50 (the source's name)): 4 µM
Compound: CCCCCCCCCCCCCCCCOC[C@H](CO[C@@H]1O[C@H](CO)[C@@H](O)[C@H](O)[C@H]1NC(C)=O)OC [B, 1-O-hexadecyl-2-O-methyl-3-O-(2′-acetamido-2′-deoxy-β-D-glucopyranosyl)-sn-glycerol]
proliferation: increase in cell numbers relative to control wells (control = 100) ([1]; MCF-7, lipid concentration 5 μM, 72 h): 81 ± 8
proliferation: increase in cell numbers relative to control wells (control = 100) ([1]; MCF-7, lipid concentration 10 μM, 72 h): 71 ± 6
proliferation: increase in cell numbers relative to control wells (control = 100) ([1]; MCF-7, lipid concentration 15 μM, 72 h): 58 ± 5
proliferation: increase in cell numbers relative to control wells (control = 100) ([1]; MCF-7, lipid concentration 20 μM, 72 h): 38 ± 2
proliferation: increase in cell numbers relative to control wells (control = 100) ([1]; MCF-7, lipid concentration 30 μM, 72 h): 6 ± 3
proliferation: increase in cell numbers relative to control wells (control = 100) ([4]; lipid concentration 5 μM): 96 ± 10
proliferation: increase in cell numbers relative to control wells (control = 100) ([4]; lipid concentration 10 μM): 79 ± 12
proliferation: increase in cell numbers relative to control wells (control = 100) ([4]; lipid concentration 15 μM): 77 ± 13
proliferation: increase in cell numbers relative to control wells (control = 100) ([4]; lipid concentration 20 μM): 79 ± 16
proliferation: increase in cell numbers relative to control wells (control = 100) ([4]; lipid concentration 30 μM): 61 ± 13
proliferation: increase in cell numbers relative to control wells (control = 100) ([2]; lipid concentration 5 μM, 72 h): 91 ± 9
proliferation: increase in cell numbers relative to control wells (control = 100) ([2]; lipid concentration 10 μM, 72 h): 45 ± 3
proliferation: increase in cell numbers relative to control wells (control = 100) ([2]; lipid concentration 15 μM, 72 h): 15 ± 2
proliferation: increase in cell numbers relative to control wells (control = 100) ([2]; lipid concentration 20 μM, 72 h): 0
proliferation: increase in cell numbers relative to control wells (control = 100) ([2]; lipid concentration 30 μM, 72 h): 0
proliferation: increase in cell numbers relative to control wells (control = 100) ([5]; lipid concentration 5 μM): 93 ± 12
proliferation: increase in cell numbers relative to control wells (control = 100) ([5]; lipid concentration 10 μM): 92 ± 6
proliferation: increase in cell numbers relative to control wells (control = 100) ([5]; lipid concentration 15 μM): 86 ± 10
proliferation: increase in cell numbers relative to control wells (control = 100) ([5]; lipid concentration 20 μM): 71 ± 8
proliferation: increase in cell numbers relative to control wells (control = 100) ([5]; lipid concentration 30 μM): 24 ± 4
growth: increase in cell numbers relative to control wells (control = 100) ([6]; lipid concentration 5 μM): 68.8 ± 5.8
growth: increase in cell numbers relative to control wells (control = 100) ([6]; lipid concentration 10 μM): 52.9 ± 3.9
growth: increase in cell numbers relative to control wells (control = 100) ([6]; lipid concentration 15 μM): 34.6 ± 7.3
growth: increase in cell numbers relative to control wells (control = 100) ([6]; lipid concentration 20 μM): 26.0 ± 10.9
growth: increase in cell numbers relative to control wells (control = 100) ([6]; lipid concentration 30 μM): 4.7 ± 4.8

IC50 [1, 7]: 21.7 ± 0.57 µM
IC50 [2, 8]: 18.1 ± 0.14 µM
IC50 [3]: 23.3 ± 0.71 µM
IC50 (HT29 cells): 23.2 ± 0.85 µM
IC50 (L1210 cells): 16.2 ± 0.99 µM
IC50 (L1210/vmdr cells): 18.9 µM
Compound: CCCCCCCCCCCCCCCCOC[C@H](CO[C@H]1O[C@H](CO)[C@@H](O)[C@H](O)[C@@H]1O)OC [compound 6, 1-O-Hexadecyl-2-O-methyl-3-O-(α-D-mannopyransoyl)-sn-glycerol]

IC50 [1, 7]: 24.4 ± 0.64 µM
IC50 [2, 8]: 19.65 ± 0.07 µM
IC50 [3]: 24.4 ± 0.42 µM
IC50 (HT29 cells): 29.6 ± 0.28 µM
IC50 (L1210 cells): 18.8 ± 0.49 µM
IC50 (L1210/vmdr cells): 26.9 ± 1.06 µM
Compound: CCCCCCCCCCCCCCCCOC[C@H](CO[C@@H]1C[C@H](O)[C@H](O)CO1)OC [compound 3, 1-O-Hexadecyl-2-O-methyl-3-O-(2′-deoxy-α-D-arabinopyransoyl)-sn-glycerol]
